This note sets out measurements from patent publication US20250170097A1, “CATHEPSIN INHIBITORS AND USE THEREOF IN A METHOD FOR DETECTING AND TREATING RESISTANCE TO IMMUNOTHERAPY” (YISSUM RESEARCH DEVELOPMENT COMPANY OF THE HEBREW …, priority 2022, published 2025).

The IC50 is the concentration that inhibits the measured activity by half. A lower IC50 goes with greater potency.

The test system of data set [1] is A549, HepG2, U87, and Hacat cells. As to the kind of experiment: Cell viability assay (methylene blue, 72 hours). In kind it is cell-based. The procedure: The cells were incubated with compounds at indicated concentrations for 72 hours at 37° C. and then fixed by 2.5% glutaraldehyde for 1 hour at room temperature and stained with methylene blue. Growth was compared to vehicle-treated cells designated as 100%.

Data set [2] relates to blood cells isolated from peripheral blood and bone marrow of CLL patients. The data set can be described thus: Annexin V staining and cathepsin S activity in blood cells of CLL patients. It is filed as cell-based, human. The procedure:
FIGS. 14A-14D are bar graphs and images presenting the inhibition of cathepsins induces apoptosis in OCI-Ly19 cells. (14A) Caspase-3 activation; (14B) FACS analysis of stained cells with anti-Annexin V; (14C) Mononuclear cells from CLL patients were isolated by FICOL, treated with 5 uM GB111-NH2 for 1 hour and stained with anti-Annexin V; and (14D) labeled crude detergent lysates.
The ability of GB111-NH2 to promote lymphoma cell death was examined. […] Cathepsin S activity in these cells was initially high and was reduced to 40% (+10%).

A further data set relates to OCI-Ly19 DLBCL cells. As to the kind of experiment: Lymphoma cell death assay (caspase-3 activation, annexin V staining). In kind it is cell-based. Here is the method: OCI-Ly19 DLBCL cells were treated with GB111-NH2 for 1 hour and the cells were evaluated for caspase-3 activation and annexin V staining as indications for apoptosis.
Caspase-3 activation was assessed through the evaluation of caspase-3 enzyme activity (100 ng of protein) with the substrate Ac-DEVD-pNA (N-acetyl-Asp-Glu-Val-Asp-p-nitroaniline) in a colorimetric assay 24 hours post treatment.

For data set [3], the system named is CD74 in OCI-Ly3 and OCI-Ly19. The data set can be described thus: CD74 expression by Western blot and FACS. In kind it is cell-based. The source says: The CD74 expression was examined by Western blot (WB) and FACS in OCI-Ly3 and OCI-Ly19 treated with GB111-NH2, LPS or LPS pretreated with GB111-NH2.
For the next data set, the system named is cathepsins B, L and S. As to the kind of experiment: Cathepsin activity in lysates of patients' cells and hematological malignancy cell lines, GB123 labeling. In kind it is cell-based, human. The procedure:
Cell lysates from hematological malignancies patients were pretreated with vehicle, or a cathepsin inhibitor GB111-NH2 for 0.5 hour, then labeled by addition of 1 μmol/L GB123 probe for 1 hour. Equal amounts of protein were separated and visualized by scanning of the gel with a Typhoon flatbed laser scanner. Each lane was taken from a different patient. MZL-Marginal zone lymphoma, CLL-chronic lymphocytic leukemia, DLBCL-Diffuse large B-cell lymphoma.
Crude detergent lysates from cells that were pretreated with either cathepsin inhibitor GB111-NH2 or with control DMSO; vehicle for 20 minutes and then labeled by addition of 1 μmol/L GB123 probe for 1 hour. Equal amounts of protein (see Coomassie) were separated and visualized by scanning of the gel with a Typhoon flatbed laser scanner.
To verify activity dependent labeling, indicated samples were pre-incubated with GB111-NH2, a potent cathepsin inhibitor, prior to GB123 labeling. After incubation with GB123, a fluorescent scan of SDS-PAGE was done. Cathepsin activity was detected in lysates of cells from human Chronic lymphocytic leukemia (CLL) and Diffuse large B-cell lymphoma (DLBCL) patients as well as healthy population (FIG. 13).

Data set [4] concerns NF-κB reporter in OCI-Ly19 cells. As to the kind of experiment: NF-κB signaling assay (luciferase reporter). Particulars: 5 μM, 0.5 μg LPS, 24 h induction; potent as SC-514. It is filed as cell-based. Here is the method:
Cells were transfected by electroporation with NF-κB reporter plasmid. After selection, the cells were harvested, and the luciferase activities were measured and normalized. 5 μM GB111-NH2 inhibited activity of NF-κB reporter in OCI-Ly 19 cells induced by 0.5 μg LPS (24 h induction). 10 μM SC-514, a specific suppressor of NF-κB activity, was used as positive control.
For orientation: In a reporter assay the amount or activity of a reporter protein is the signal.

For a further data set, the system named is B16-F10 tumors. As to the kind of experiment: Resistant B16-F10 melanoma tumor-bearing mice. Particulars: combination of GB111-NH2 (30 mg/kg) and anti PD-1 (100 μg/dose), every 4 days from day 5. It is filed as in vivo. Here is the method: A sensitive IT treatment model, D4M tumors and, a more resistant model, IT B16-F10 tumor Cells were injected subcutaneously (SC) to the back of the mice and their growth was measured continuously by caliper. Anti PD-1 was administered intra peritoneally (IP) twice, a few days after the tumor could be palpated, and on indicated days and doses as described in the methods, changes in tumor volume were measured during the experiment (FIG. 4A).
To determine the cathepsin activity in both models, one day prior to sacrifice, GB123 (a fluorescent cathepsin activity-based probe) was administered IV, and tumors were harvested for further biochemical examination. Tumor tissue was subjected to fluorescence-activated cell sorting (FACS) analysis to determine the percentage of tumor associated macrophages (TAMs) that express high cathepsin activity.
The effect of the inhibition of cathepsin activity on the resistance to IT was examined using the resistant B16-F10 tumor-bearing mice with IT (anti-PD-1), GB111-NH2 (cathepsin inhibitor), or their combinations. The B16-F10 tumor-bearing mice were treated every 4 days, starting on day 5 after cell inoculation with anti PD-1 (100 μg/dose), GB111-NH2 (30 mg/kg) or their combinations; IT was given a day before GB111-NH2 (a group of GB111-NH2 first and IT a day later was included). […] In addition, survival plots were generated (FIG. 6B).

Data set [5] has as its system endogenous cathepsin activity (cathepsin L/B) in lung cancer A549 cells. As to the kind of experiment: Cathepsin inhibition in intact A549 cells, residual activity labeled with GB123. It is filed as cell-based. To be noted: for IC50: 1 hour at 37° C., FIG. 9B. The procedure: The ability of MGB to penetrate cells and inhibit endogenous cathepsin activity was tested in lung cancer A549 cells. This model (lung cells) was chosen since corona virus is known to infect the respiratory system. Intact cells were treated with inhibitors and the residual activity was determined by GB123. Inhibition was detected on SDS-PAGE Potent inhibitors reduce the residual activity and as a result, a reduction in fluorescently labeled cathepsins is seen (FIG. 9A). The cathepsin activity was quantification and IC50 curves were plotted.

Data set [6] has as its system endogenous cathepsin activity. As to the kind of experiment: Endogenous inhibition of cathepsin activity, ACE2-ab-MGB compared to MGB (FIG. 10). To be noted: FIG. 10A-10B. In kind it is cell-based.
Method: 2.5*10^5 cells per well (A549, U87 or HepG2), were seeded in 6 well plates one day before incubation with indicated concentrations of inhibitors (GB111-NH2 or MGB, respectively) for 1 hour at 37° C. Residual cathepsin activity was labeled by the addition of 2 μM of GB123 for 2 hours at 37° C. Sample buffer was added and samples were boiled at 100° C. for 10 min. Equal protein amounts of each sample were resolved by a 12.5% SDS PAGE. a) Gels were scanned for fluorescence by a Typhoon scanner. b) The gel bands were quantified using ImageJ software and IC50 curves were generated from triplicate experiments using Prism-GraphPad software.
Data set [7] deals with Recombinant cathepsin B (rCatB) (Homo sapiens, UniProt P07858). As to the kind of experiment: Competitive inhibition of recombinant cathepsin B, residual activity labeled with GB123, SDS PAGE. It is filed as biochemical. To be noted: fluorescent SDS-PAGE, FIG. 8C. The procedure:
(§1) Recombinant cathepsin B and L (rCatB and rCatL, respectively) were incubated for 45 minutes at 37° C. with 1 μl of increasing concentrations of cathepsin inhibitors (GB111-NH2 or MGB, respectively), residual cathepsin activity was labeled by addition of 1 μM of GB123 fluorescent activity-based probe for 45 minutes at 37° C., sample buffer was added for 2 min and the sample was boiled at 100° C. for 2 minutes. Equal amount of each sample was separated by a 12.5% SDS PAGE, this experiment was repeated 3 times. The gel was scanned for fluorescence by a Typhoon scanner. The bands were quantified by ImageJ software and then IC50 curves were generated from triplicate experiment by Prism-GraphPad software.

Data set [8] has as its target Recombinant cathepsin L (rCatL) (Homo sapiens, UniProt P07711). As to the kind of experiment: Competitive inhibition of recombinant cathepsin L, residual activity labeled with GB123, SDS PAGE. It is filed as biochemical. To be noted: fluorescent SDS-PAGE, FIG. 8C. Here is the method:
as §1

Sequence of Recombinant cathepsin L (rCatL) (P07711 114-333, species assumed): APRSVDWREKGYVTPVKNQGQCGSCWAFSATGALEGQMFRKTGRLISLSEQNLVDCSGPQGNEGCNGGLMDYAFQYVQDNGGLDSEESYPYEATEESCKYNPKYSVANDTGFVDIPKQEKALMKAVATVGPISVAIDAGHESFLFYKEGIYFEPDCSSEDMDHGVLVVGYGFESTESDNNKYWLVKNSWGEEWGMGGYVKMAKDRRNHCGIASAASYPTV

Take `Cc1cccc(C)c1C(=O)OCC(=O)[C@H](CCCCN)NC(=O)[C@H](Cc1ccccc1)NC(=O)OCc1ccccc1` [GB111-NH2]: in [1] (even at low concentrations as 1 μM), the cell viability result is reported as “reduced cell viability significantly”. Moreover, in data set [2] (5 uM for 1 hour, p value 0.016), the “Annexin V staining” value is recorded as “increased Annexin V staining”. Moreover, the “Cathepsin S activity, reduced to” value in data set [2] (CLL patients' cells) turned out to be 40%. In the data set with OCI-Ly19 DLBCL cells (OCI-Ly19, 24 hours post treatment), the “increase in caspase-3 activity” value is on record as 4.5 fold. Also, the “increase in Annexin V staining” value in the data set with OCI-Ly19 DLBCL cells (OCI-Ly19, treated for 1 hour) was found to be 2.5 fold. Further, in [3], the “surface expression of CD74 (FACS)” value is given as “reduces the surface expression of CD74”. Further, in the data set on cathepsins B, L and S (NF-κB reporter cells treated with LPS), the “cathepsin activity in OCI-Ly19 cells” value was “blocked cathepsin activity”. Moreover, in the data set on cathepsins B, L and S (patients' cells and lymphoma cell lines, pretreatment before GB123 labeling), the cathepsins activity entry is “abolished cathepsins activity”. Also, the “LPS-induced NF-κB transcriptional activity” value in data set [4] is given as “suppressed LPS-induced NF-κB transcriptional activity”. Moreover, the Tumor volume result in the data set on B16-F10 tumors is given as “significantly smaller tumors”. Moreover, in [5], the “potency relative to MGB” value is “over 200 fold” and half-maximal inhibition (IC50) required 6 nM.
In the case of `Cc1cccc(C)c1C(=O)OCC(=O)[C@H](CCCCN)NC(=O)[C@H](Cc1ccccc1)NC(=O)[C@H](Cc1ccccc1)NC(=O)CCCCCN1C(=O)C=CC1=O` [MGB], the cell viability entry in data set [1] (even at a concentration of 5 μM) is “safe to cells”. In addition, the IC50 in data set [6] stood at 1700 ± 600 nM; in data set [5] it was 1900 nM. Further, the “inhibition of rCatB” value in data set [7] is recorded as “inhibits”. For the same molecule, in data set [8], the “inhibition of rCatL” value is “inhibits”.
